According to US11866474B2, “Modulating angiogenesis by proteomimetics of vascular endothelial growth factor” (UNIVERSITY OF SOUTH FLORIDA, priority 2021, dated 2024):

Key:
[1] = target: T1, VEGFR-1 extracellular domain (Met 1-Asn 756) (Homo sapiens, UniProt P17948); assay: Surface plasmon resonance binding to VEGFR-1 extracellular domain; conditions: one-to-one binding model
T1 construct: VEGF-1 protein extracellular domain (Met 1-Asn 756); purchased Creative BioMart USA FLT1-3809H
Experimental: (§1) Surface plasmon resonance (SPR) assays were carried out to determine the binding affinities of the VEGF mimic sequences toward the extracellular domains of VEGFR-1 and VEGFR-2 (FIGS. 13 and 14).
(§2) Binding kinetics of VEGF mimics to VEGFR-1 were measured by surface plasmon resonance (SPR) using a Biacore T200 (General Electric Co.). […] protein extracellular domain (Met 1-Asn 756) (FLT1-3809H, Creative BioMart USA) was covalently coupled to CMS chip following manufacturer's instructions. Samples were prepared in RBS-EP+ buffer (pH 7.4) at different concentration and flowed over the sensor chip to interact with the immobilized protein, followed by the running buffer. The dissociation data was collected, and a different concentration was assayed after redundant samples were removed from the protein by treating with KCl (1 M). The final binding kinetics was obtained by fitting using the T200 software with a one-to-one binding model. Binding affinities of mimic sequences to VEGFR-2 were measured using VEGFR-2 extracellular domain (Met 1-Glu 764) (KDR-6966H, Creative BioMart USA) in a similar fashion.

[2] = target: T2, VEGFR-2 extracellular domain (Met 1-Glu 764) (Homo sapiens, UniProt P35968); assay: Surface plasmon resonance binding to VEGFR-2 extracellular domain; conditions: for Binding affinity (Kd) to VEGFR-2 as determined by SPR: extracellular domain, one-to-one binding model
T2 construct: VEGFR-2 extracellular domain (Met 1-Glu 764); purchased Creative BioMart USA KDR-6966H
Experimental: as §1, §2

HUVECs [3] = assay: Transwell cell migration assay; assay type: cell-based, human; conditions: 10 μM, in the presence of VEGF165 (50 ng/mL), 12 h
Description: Endothelial cell migration is an essential component of angiogenesis mediated by the VEGF pathway and can be used to assess the effect of drugs on the VEGF pathway. A Transwell migration assay was used to test the effect of the mimic sequences on the migration of human umbilical endothelial cells (HUVECs). […] Given the findings that V2 has a much stronger binding affinity for VEGFR1 than VEGFR2 (FIG. 12), the inventors speculated that this stimulatory effect may be due to its specific binding to VEGFR1, the decoy receptor. It is plausible that inhibition of VEGF-A binding to VEGFR-1 leads to an increased level of VEGF-A to bind and activate VEGFR-2, an indirect activation of the main angiogenic receptor.67 Cell migration assay was performed in triplicates on Transwell permeable support, 8.0 μm pore (Corning, USA). […] Migrated cells at the bottom of the membrane were fixed with 4% paraformaldehyde and stained with Crystal Violet at 37° C. for 20 min and 10 min respectively and counted with Nikon Inverted Microscope ECLIPSE Ti-U.

HUVECs [4] = assay: Wound healing (scratch-wound motility) assay; assay type: cell-based, human; conditions: 10 μM, in the presence of VEGF165 (50 ng/mL), 24 h
Experimental: Wound healing is facilitated by the VEGF pathway's effect on cell migration and proliferation.14 The effect of the helical mimic sequences on cell migration and invasion was tested on HUVECs in the presence of VEGF165 using a scratch-wound motility assay. […] HUVEC cells (10^5) were seeded on a 12 well tissue culture plate and allowed to grow for 12 h. The attached cells were then scratched with a sterile […] pipette tip and treated with mimic sequences (10 μM) and/or VEGF165 (50 ng/mL) in serum free medium. […] The wound widths were measured by ImageJ (version 1.50).

HUVECs [5] = assay: Capillary tube formation assay; assay type: cell-based, human; conditions: 2 μM, in the presence of VEGF165 (50 ng/mL), 24 h
Experimental: The ultimate effect of angiogenesis is the formation of vasculature that can support healing, survival, and proliferation. Next, the inventors used HUVECs to investigate the effect of the AA peptide sequences on the formation of capillary-like tube structures in vitro in the presence of VEGF165. […] Nutrient starved HUVECs, for 24 h in 0.5% FBS (sEBM) endothelial basal medium (EBM), were harvested and resuspended in 10% FBS (mEGM) endothelial growth medium. Cells were then seeded in 48 well plate coated with basement membrane extract (BME). To prepare the plates, Costar48 well culture plates were coated with basement membrane (Corning Matrigel Basement Membrane Matrix LDEV-free, 354234) and incubated for 30 min at 37° C. 5×10^4 cells were seeded in each well and treated with VEGF mimic sequences and/or VEGF165, or left untreated. Formation or lack thereof of tube-like structures was monitored over a 24 h period with a Nikon Inverted Microscope ECLIPSE Ti-U.

VEGFR-2 (P-VEGFR-2) = assay: Western blot of VEGFR-2 phosphorylation in HUVEC lysates; assay type: cell-based, human; conditions: with VEGF-A stimulation
Experimental: (§3) The effect of VEGF-mimicking sequences on VEGF-A-mediated activation of Akt, a key VEGF downstream signal,^68 and VEGFR-2 was then examined by Western blot (FIG. 8). […] However, the activation of the VEGF pathway by V2 and QK is dependent on the presence of VEGF-A (FIG. 8E). […] HUVECs (1×10^6) were starved for 24 h and treated with a V1, V2, V3 and QK in the presence or absence of VEGF-A165 at 37° C. for 24 h. Cells were then lysed with a lysis buffer containing Protease and Phosphatase Inhibitor (Thermo Scientific) to obtain total cellular proteins, and the amount of protein was quantified using the BCA Protein Assay Kit (Thermo Scientific, Waltham, MA). Proteins were then denatured by boiling at 100° C. for 10 min in the sample buffer and separated by electrophoresis on 10% SDS-[…] minigels. Target proteins were transferred to polyvinylidene difluoride membranes and blocked with 5% BSA in TBST solution for 1 h and then washed three times with TBST (5 min each time). […]

Akt (P-AKT) = assay: Western blot of Akt phosphorylation in HUVEC lysates; assay type: cell-based, human; conditions: with VEGF-A stimulation
Experimental: as §3

VEGFR-1 = target: T3, VEGFR-1 (Homo sapiens, UniProt P17948); assay: Immunofluorescence binding assay with anti-VEGFR-1 antibody; assay type: cell-based; conditions: HUVECs treated with 10 μM, compared to control
T3 construct: immunofluorescence studies were carried out using HUVECs and antibodies specific to each receptor; endogenous in cells; host or cells: HUVEC
Experimental: (§4) On the basis of the assays conducted, the inventors speculated that distinct cell signaling and angiogenic response are due to the sequences V2 and V3 binding to different VEGFR subtypes. To further characterize the binding profiles of V2 and V3 to VEGFR-1 and VEGFR-2, immunofluorescence studies were carried out using HUVECs and antibodies specific to each receptor. Cells treated with V2 and V3 (10 μM) were fixed and treated with anti-VEGFR-1 and anti-VEGFR-2 antibodies, followed by FITC-labeled secondary antibody and a DAPI counterstain. […] HUVEC cells grown in m-Dish 35 mm, high Glass Bottom (#81158 Ibidi) were treated with V2 and V3 overnight at 37° C. Cells were then washed with TBST twice and fixed with 4% formaldehyde solution (Fisher Chemical) for 20 min at room temperature. This was followed by TBST wash twice and blocking with TBST—5% BSA blocking solution for 1 h at room temperature. After washing the cells with TBST three times, the cells were incubated with anti-VEGFR-1 antibody (Proteintech) and anti-VEGFR-2 antibody (Invitrogen) overnight at 4° C. […] A Nikon fluorescence microscope was used for imaging cells and image analysis was done with Image J software (ImageJ 5.53e, National Institute of Health, USA).

VEGFR-2 = target: T4, VEGFR-2 (Homo sapiens, UniProt P35968); assay: Immunofluorescence binding assay with anti-VEGFR-2 antibody; assay type: cell-based; conditions: HUVECs treated with 10 μM, compared to control
T4 construct: endogenous in cells; host or cells: HUVEC
Experimental: as §4

T2 sequence (P35968 20-764): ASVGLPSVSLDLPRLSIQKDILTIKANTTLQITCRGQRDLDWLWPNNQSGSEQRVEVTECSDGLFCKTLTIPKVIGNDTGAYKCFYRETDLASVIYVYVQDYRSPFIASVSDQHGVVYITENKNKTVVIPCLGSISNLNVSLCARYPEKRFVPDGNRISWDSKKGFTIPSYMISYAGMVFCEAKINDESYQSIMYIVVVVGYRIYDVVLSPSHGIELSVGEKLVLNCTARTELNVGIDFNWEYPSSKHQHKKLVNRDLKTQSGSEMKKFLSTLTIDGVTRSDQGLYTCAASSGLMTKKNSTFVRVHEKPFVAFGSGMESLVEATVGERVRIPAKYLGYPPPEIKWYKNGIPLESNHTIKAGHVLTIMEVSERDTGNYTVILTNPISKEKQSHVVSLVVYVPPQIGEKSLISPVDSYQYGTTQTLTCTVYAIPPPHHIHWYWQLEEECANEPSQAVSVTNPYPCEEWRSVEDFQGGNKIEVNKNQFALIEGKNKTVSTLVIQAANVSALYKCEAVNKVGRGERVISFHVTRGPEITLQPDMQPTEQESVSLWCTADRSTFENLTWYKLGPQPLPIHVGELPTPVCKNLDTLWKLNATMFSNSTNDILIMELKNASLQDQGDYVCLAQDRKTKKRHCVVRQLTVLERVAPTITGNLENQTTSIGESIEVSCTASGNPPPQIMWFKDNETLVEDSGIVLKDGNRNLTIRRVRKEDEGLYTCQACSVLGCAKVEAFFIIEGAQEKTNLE
T1 sequence (P17948 27-756): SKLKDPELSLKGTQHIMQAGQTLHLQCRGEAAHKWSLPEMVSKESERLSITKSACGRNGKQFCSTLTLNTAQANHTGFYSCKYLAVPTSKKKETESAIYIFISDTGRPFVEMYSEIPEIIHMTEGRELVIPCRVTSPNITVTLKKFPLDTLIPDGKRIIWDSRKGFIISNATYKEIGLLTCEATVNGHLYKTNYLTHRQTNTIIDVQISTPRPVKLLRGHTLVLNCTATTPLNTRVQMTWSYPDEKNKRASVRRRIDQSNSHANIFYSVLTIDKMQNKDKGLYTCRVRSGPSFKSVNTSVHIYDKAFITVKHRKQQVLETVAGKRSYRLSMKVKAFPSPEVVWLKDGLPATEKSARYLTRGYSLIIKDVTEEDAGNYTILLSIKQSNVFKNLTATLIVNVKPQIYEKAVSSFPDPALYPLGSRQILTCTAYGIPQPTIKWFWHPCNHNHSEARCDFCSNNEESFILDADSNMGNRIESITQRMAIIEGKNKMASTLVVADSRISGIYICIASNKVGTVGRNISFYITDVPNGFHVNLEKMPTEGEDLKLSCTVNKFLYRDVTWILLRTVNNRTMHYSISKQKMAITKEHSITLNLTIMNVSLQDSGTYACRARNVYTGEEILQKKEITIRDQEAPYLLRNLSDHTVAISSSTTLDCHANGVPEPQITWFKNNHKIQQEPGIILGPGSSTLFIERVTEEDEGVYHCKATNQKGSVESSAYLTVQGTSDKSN
T3 sequence (P17948 27-1338): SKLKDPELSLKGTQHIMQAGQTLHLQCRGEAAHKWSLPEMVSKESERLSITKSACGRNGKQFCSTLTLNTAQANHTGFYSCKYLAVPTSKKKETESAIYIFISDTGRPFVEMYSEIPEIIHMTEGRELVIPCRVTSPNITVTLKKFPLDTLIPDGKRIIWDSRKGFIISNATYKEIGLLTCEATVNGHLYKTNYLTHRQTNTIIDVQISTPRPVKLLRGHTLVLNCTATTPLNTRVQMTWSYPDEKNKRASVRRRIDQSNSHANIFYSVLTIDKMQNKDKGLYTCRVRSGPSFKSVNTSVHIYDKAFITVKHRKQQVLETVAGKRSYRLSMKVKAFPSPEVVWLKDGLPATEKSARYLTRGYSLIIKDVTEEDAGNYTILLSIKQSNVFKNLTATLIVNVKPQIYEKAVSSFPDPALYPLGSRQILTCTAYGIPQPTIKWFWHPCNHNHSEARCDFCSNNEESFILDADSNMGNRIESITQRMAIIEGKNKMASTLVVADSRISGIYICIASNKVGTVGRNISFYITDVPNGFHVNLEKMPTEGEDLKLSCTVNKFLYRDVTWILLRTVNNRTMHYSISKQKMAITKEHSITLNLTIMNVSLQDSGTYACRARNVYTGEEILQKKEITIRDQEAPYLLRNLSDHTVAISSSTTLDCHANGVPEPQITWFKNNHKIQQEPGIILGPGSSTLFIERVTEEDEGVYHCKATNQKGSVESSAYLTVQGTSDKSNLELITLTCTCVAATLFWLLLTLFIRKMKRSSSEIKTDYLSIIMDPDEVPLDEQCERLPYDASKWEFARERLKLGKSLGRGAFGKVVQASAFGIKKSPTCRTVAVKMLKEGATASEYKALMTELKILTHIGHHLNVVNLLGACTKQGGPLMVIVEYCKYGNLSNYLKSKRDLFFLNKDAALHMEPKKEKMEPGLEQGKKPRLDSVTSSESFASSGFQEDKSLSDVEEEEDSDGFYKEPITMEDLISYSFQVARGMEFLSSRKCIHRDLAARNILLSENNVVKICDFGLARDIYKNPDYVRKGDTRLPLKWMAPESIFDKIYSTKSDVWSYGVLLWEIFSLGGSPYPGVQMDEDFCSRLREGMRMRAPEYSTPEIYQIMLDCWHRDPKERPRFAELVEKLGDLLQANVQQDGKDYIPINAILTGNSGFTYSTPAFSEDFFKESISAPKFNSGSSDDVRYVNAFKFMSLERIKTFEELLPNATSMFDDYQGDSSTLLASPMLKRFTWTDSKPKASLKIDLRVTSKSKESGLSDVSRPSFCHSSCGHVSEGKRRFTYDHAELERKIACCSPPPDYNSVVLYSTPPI
T4 sequence (P35968 20-1356): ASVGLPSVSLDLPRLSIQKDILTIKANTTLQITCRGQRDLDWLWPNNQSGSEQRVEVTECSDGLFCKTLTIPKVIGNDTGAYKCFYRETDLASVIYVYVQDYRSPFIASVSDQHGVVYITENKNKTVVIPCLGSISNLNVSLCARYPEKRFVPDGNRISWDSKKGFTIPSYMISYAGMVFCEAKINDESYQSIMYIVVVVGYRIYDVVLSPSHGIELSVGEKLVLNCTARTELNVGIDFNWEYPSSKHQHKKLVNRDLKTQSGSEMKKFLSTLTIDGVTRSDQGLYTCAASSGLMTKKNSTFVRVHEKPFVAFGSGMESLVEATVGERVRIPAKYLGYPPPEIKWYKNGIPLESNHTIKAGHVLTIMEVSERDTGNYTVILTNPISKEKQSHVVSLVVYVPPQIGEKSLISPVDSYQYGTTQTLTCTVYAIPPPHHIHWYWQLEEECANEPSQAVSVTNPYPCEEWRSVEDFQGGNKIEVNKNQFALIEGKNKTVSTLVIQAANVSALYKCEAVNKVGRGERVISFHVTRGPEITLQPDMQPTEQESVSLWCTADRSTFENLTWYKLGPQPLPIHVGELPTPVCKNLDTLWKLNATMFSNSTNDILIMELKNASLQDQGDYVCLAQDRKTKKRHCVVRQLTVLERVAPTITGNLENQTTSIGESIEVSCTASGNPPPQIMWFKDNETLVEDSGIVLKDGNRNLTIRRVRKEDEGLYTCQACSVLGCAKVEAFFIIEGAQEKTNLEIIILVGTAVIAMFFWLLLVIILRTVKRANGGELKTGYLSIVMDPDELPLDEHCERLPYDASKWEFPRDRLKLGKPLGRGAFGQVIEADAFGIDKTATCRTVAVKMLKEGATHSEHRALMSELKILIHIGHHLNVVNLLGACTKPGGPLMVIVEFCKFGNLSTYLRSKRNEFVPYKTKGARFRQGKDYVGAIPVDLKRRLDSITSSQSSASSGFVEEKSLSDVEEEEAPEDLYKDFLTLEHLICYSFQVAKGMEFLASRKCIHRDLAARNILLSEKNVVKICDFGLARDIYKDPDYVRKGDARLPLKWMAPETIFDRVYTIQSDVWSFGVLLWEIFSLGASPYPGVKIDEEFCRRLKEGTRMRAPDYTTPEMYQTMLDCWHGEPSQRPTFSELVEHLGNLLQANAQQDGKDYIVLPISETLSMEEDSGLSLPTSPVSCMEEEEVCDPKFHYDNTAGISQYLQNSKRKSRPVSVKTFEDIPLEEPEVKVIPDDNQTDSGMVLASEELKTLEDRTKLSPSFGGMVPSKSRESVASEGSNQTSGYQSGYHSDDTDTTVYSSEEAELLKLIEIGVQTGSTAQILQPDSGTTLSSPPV

Binding affinity (Kd) to VEGFR-1 as determined by SPR [1] | Binding affinity (Kd) to VEGFR-2 as determined by SPR [2] | Selectivity for VEGFR2 (SPR binding) ([2]; VEGFR2 over VEGFR1) | Fluorescence with anti-VEGFR-2 antibody (VEGFR-2) | Compound | Number of HUVECs migrating (Transwell) (HUVECs [3]) | Cell migration in wound healing assay (HUVECs [4]) | Capillary tube formation (HUVECs [5]) | Inhibition of phosphorylation of VEGFR-2 at low concentration (VEGFR-2 (P-VEGFR-2); 100 nM) | Phosphorylation of VEGFR-2 (P-VEGFR-2) (VEGFR-2 (P-VEGFR-2); 0.1, 0.5, 1, 10 μM) | Inhibition of phosphorylation of Akt at low concentration (Akt (P-AKT); 100 nM) | Phosphorylation of Akt (P-AKT) (Akt (P-AKT); 0.1, 0.5, 1, 10 μM) | Fluorescence with anti-VEGFR-1 antibody (VEGFR-1)
submicromolar binding affinity | good binding affinities | – | – | CC(=O)N[C@@H](CCC(=O)O)CN(CC(=O)N[C@@H](CC(C)C)CN(CC(=O)N[C@@H](Cc1ccccc1)CN(CC(=O)N[C@@H](CCC(=O)O)CN(CC(=O)N[C@@H](Cc1ccc(O)cc1)CN(CC(=O)N[C@@H](CCCCN)CN(CC(=O)N[C@@H](Cc1ccc(O)cc1)CN(CC(=O)N[C@@H](C)CN(CC(N)=O)S(C)(=O)=O)S(C)(=O)=O)S(C)(=O)=O)S(=O)(=O)CCN)S(=O)(=O)CC(C)C)S(=O)(=O)CC(C)C)S(=O)(=O)CCN)S(=O)(=O)CCN [V2] | – | – | – | – | – | – | – | –
good binding affinities | submicromolar binding affinity | remarkable selectivity | significant reduction of fluorescence | CC(=O)N[C@@H](CCC(=O)O)CN(CC(=O)N[C@@H](CC(C)C)CN(CC(=O)N[C@@H](Cc1c[nH]c2ccccc12)CN(CC(=O)N[C@@H](CCC(=O)O)CN(CC(=O)N[C@@H](Cc1ccc(O)cc1)CN(CC(=O)N[C@@H](CCCCN)CN(CC(=O)N[C@@H](Cc1ccc(O)cc1)CN(CC(=O)N[C@@H](C)CN(CC(N)=O)S(C)(=O)=O)S(C)(=O)=O)S(C)(=O)=O)S(=O)(=O)CCN)S(=O)(=O)CC(C)C)S(=O)(=O)CC(C)C)S(=O)(=O)CCN)S(=O)(=O)CCN [V3] | significantly lowered | virtually completely blocked wound motility | substantial inhibition of capillary tube formation | potent inhibition | dose-dependent inhibition of phosphorylation | potent inhibition | dose-dependent inhibition of phosphorylation | almost no effect on intensity of fluorescence
